Patent publication US20240208978A1, “IDH MUTANT INHIBITOR AND USE THEREOF” (WIGEN BIOMEDICINE TECHNOLOGY (SHANGHAI) CO., LTD., priority 2021, published 2024)
Blank lines part the entries; values can stand above or below the compound they belong to.

Target: T1, mIDH1 R132H (Homo sapiens, UniProt O75874, R132H)
T1 construct: expressed in transfected cells; host or cells: U87MG
Experiment: Detection of 2-HG in supernatant of U87-IDH1 R132H cells
Assay type: cell-based
Conditions: U-87 MG, 72 h, U87MG cells overexpressing mIDH1 R132H, LC-MS-MS; for inhibition at 0.001 µM: 1 nM compound, read-out: Inhibition rate on 2-HG in the supernatant of U87-IDH R132H cells, 1 nM; for inhibition at 0.01 µM: 10 nM compound, read-out: Inhibition rate on 2-HG in the supernatant of U87-IDH R132H cells, 10 nM; for inhibition at 0.1 µM: 100 nM compound, read-out: Inhibition rate on 2-HG in the supernatant of U87-IDH R132H cells, 100 nM
Method: U87MG cells overexpressing the mIDH1 R132H mutation or HT1080 cells carrying IDH1 R132C were seeded in a 48-well plate and a 96-well plate at 50,000 cells/well and 10,000 cells/well, respectively. After the cells were incubated overnight for adhesion, the supernatants were removed. The cell culture media containing serially diluted compounds were added, and the cells were incubated for 72 h. After 72 h, the culture media were collected and diluted 10-fold and 20-fold with water, respectively. Acetonitrile was added to extract the metabolites. The 2-HG content in the culture media was analyzed by LC-MS-MS. The percentage inhibition and IC50 of the compounds on 2-HG in the supernatant were calculated as compared with the control group.

T1 sequence (O75874 whole entry R132H): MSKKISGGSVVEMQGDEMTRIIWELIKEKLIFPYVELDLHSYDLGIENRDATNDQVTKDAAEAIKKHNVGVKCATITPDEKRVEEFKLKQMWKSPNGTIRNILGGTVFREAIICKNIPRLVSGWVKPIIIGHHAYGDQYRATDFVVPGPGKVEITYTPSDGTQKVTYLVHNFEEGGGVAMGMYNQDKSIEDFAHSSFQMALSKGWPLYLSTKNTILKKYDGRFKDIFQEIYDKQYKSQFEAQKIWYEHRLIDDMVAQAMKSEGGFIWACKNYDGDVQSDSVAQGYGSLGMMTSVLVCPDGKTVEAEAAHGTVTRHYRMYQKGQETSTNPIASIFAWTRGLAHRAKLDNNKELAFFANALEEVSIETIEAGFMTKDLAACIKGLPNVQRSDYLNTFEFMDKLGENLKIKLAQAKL

Compound: C=CC(=O)NC1CCN(C(CC2CC2)c2ccc([C@H](C)Nc3ncc4[nH]c(=O)n(CC)c4n3)cc2)CC1 (stereo partly drawn) [Compound 26]
inhibition at 0.001 µM: 60 to 90% | inhibition at 0.01 µM: 60 to 90% | inhibition at 0.1 µM: > 90%

Compound: C=CC(=O)N1CCN(C(CC(C)C)c2ccc([C@H](C)Nc3ncc4[nH]c(=O)n(C5CCCC5)c4n3)cc2)CC1 (stereo partly drawn) [Compound 32]
inhibition at 0.001 µM: 30 to 60% | inhibition at 0.01 µM: > 90% | inhibition at 0.1 µM: > 90%

Compound: C=CC(=O)N1CCN(C(CC(C)(C)C)c2ccc([C@H](C)Nc3ncc4[nH]c(=O)n(CC)c4n3)cc2)CC1 (stereo partly drawn) [Compound 11]
inhibition at 0.001 µM: 30 to 60% | inhibition at 0.01 µM: 60 to 90% | inhibition at 0.1 µM: > 90%

Compound: C=CC(=O)N1CCN(C(CC2CC2)c2ccc([C@H](C)Nc3ncc4[nH]c(=O)n(C5CCC5)c4n3)cc2)CC1 (stereo partly drawn) [Compound 5]
inhibition at 0.001 µM: 30 to 60% | inhibition at 0.01 µM: > 90% | inhibition at 0.1 µM: > 90%

Compound: C=CC(=O)N1CCN(C(CC)c2ccc([C@H](C)Nc3ncc4[nH]c(=O)n(CC)c4n3)cc2)CC1 (stereo partly drawn) [Compound 7]
inhibition at 0.001 µM: 30 to 60% | inhibition at 0.01 µM: 60 to 90% | inhibition at 0.1 µM: > 90%

Compound: C=CC(=O)N1CCN(C2(c3ccc([C@H](C)Nc4ncc5[nH]c(=O)n(CC)c5n4)cc3)CCC(F)(F)CC2)CC1 [Compound 17]
inhibition at 0.001 µM: 30 to 60% | inhibition at 0.01 µM: 60 to 90% | inhibition at 0.1 µM: > 90%

Compound: C=CC(=O)N1CCN(C(CC)(CC)c2ccc([C@H](C)Nc3ncc4[nH]c(=O)n(CC)c4n3)cc2)CC1 [Compound 14]
inhibition at 0.001 µM: 30 to 60% | inhibition at 0.01 µM: > 90% | inhibition at 0.1 µM: > 90%

Compound: C=CC(=O)N1CCN(C(CC(C)C)c2ccc([C@H](C)Nc3ncc4[nH]c(=O)n(CC)c4n3)cc2)CC1 (stereo partly drawn) [Compound 8]
inhibition at 0.001 µM: 30 to 60% | inhibition at 0.01 µM: > 90% | inhibition at 0.1 µM: > 90%

Compound: C=CC(=O)NC1CN(C(CC2CC2)c2ccc([C@H](C)Nc3ncc4[nH]c(=O)n(CC)c4n3)cc2)C1 (stereo partly drawn) [Compound 25]
inhibition at 0.001 µM: 60 to 90% | inhibition at 0.01 µM: 60 to 90% | inhibition at 0.1 µM: > 90%

Compound: C=CC(=O)N(C)C1CCN(C(CC2CC2)c2ccc([C@H](C)Nc3ncc4[nH]c(=O)n(CC)c4n3)cc2)CC1 (stereo partly drawn) [Compound 28]
inhibition at 0.001 µM: 30 to 60% | inhibition at 0.01 µM: 60 to 90% | inhibition at 0.1 µM: > 90%

Compound: C=CC(=O)N1CCN(C(CC23CC(C2)C3)c2ccc([C@H](C)Nc3ncc4[nH]c(=O)n(C5CC5)c4n3)cc2)CC1 (stereo partly drawn) [Compound 34]
inhibition at 0.001 µM: 60 to 90% | inhibition at 0.01 µM: > 90% | inhibition at 0.1 µM: > 90%

Compound: C=CC(=O)N1CCN(C(CC2CC2)c2ccc([C@H](C)Nc3ncc4[nH]c(=O)n(C5CC5)c4n3)cc2)CC1 (stereo partly drawn) [Compound 4]
inhibition at 0.001 µM: 30 to 60% | inhibition at 0.01 µM: > 90% | inhibition at 0.1 µM: > 90%

Now from value to compound:

inhibition at 0.001 µM: < 30% | inhibition at 0.01 µM: 60 to 90% | inhibition at 0.1 µM: > 90%
Compound: C=CC(=O)N1CCN(C(CC2CC2)c2ccc([C@H](C)Nc3ncc4[nH]c(=O)n(C5CCCC5)c4n3)cc2)CC1 (stereo partly drawn) [Compound 6]

inhibition at 0.001 µM: < 30% | inhibition at 0.01 µM: 60 to 90% | inhibition at 0.1 µM: 60 to 90%
Compound: C=CC(=O)N1CCN(C(CC2CC2)c2ccc([C@H](C)Nc3ncc4c(n3)n(CC)c(=O)n4C)cc2)CC1 (stereo partly drawn) [Compound 37]

inhibition at 0.001 µM: < 30% | inhibition at 0.01 µM: 60 to 90% | inhibition at 0.1 µM: > 90%
Compound: C=CC(=O)N1CCN(C(CC2CC2)c2ccc(C3(Nc4ncc5[nH]c(=O)n(C(C)C)c5n4)CC3)cc2)CC1 (stereo not drawn) [Compound 40]

inhibition at 0.001 µM: 30 to 60% | inhibition at 0.01 µM: 60 to 90% | inhibition at 0.1 µM: > 90%
Compound: C=CC(=O)N1CCC2(C1)CN(C(CC1CC1)c1ccc([C@H](C)Nc3ncc4[nH]c(=O)n(CC)c4n3)cc1)C2 (stereo partly drawn) [Compound 19]

inhibition at 0.001 µM: 30 to 60% | inhibition at 0.01 µM: 60 to 90% | inhibition at 0.1 µM: > 90%
Compound: C=CC(=O)N1CC(N(C)C(CC2CC2)c2ccc([C@H](C)Nc3ncc4[nH]c(=O)n(CC)c4n3)cc2)C1 (stereo partly drawn) [Compound 24]

inhibition at 0.001 µM: 30 to 60% | inhibition at 0.01 µM: > 90% | inhibition at 0.1 µM: > 90%
Compound: C=CC(=O)N1CCN(C(CC23CC(C2)C3)c2ccc([C@H](C)Nc3ncc4[nH]c(=O)n(C5CCCC5)c4n3)cc2)CC1 (stereo partly drawn) [Compound 36]
